Results reported in paper PMC11256175 (Bioengineering & Translational Medicine, 2024).
Converted amounts (≈) assume the structure as drawn. “Also recorded” adds a separate entry of the source. Like-named read-outs stand apart in the source and are kept apart here.

What was measured:
[1] = set-up: method as in PMID 27067365; settings: pretreatment and intermittent dosing of clodronate; cited from earlier work
[2] = phosphate‐buffered saline [PBS], pH 7.4; cited from earlier work
[3] = Dispersibility of EV‐P particles in oily vehicles (visual); format: physicochemical; settings: after 3 days storage at 25°C, EV‐P 9.0 mg/mL
Description: Pulverized EV‐P powder (5 mg as EV) was added to injectable oil vehicles (1 mL) in an Eppendorf tube. The mixture was then vortexed for 10 min using a multi‐vortex (Vortex Genie 2, Scientific Industries, Chicago, IL, USA) and then shaken for 3 h at 25°C in a shaking incubator (model BF‐60SIRL, Bio Free, Seoul, Korea). Then, the dispersibility of EV‐P particles in different oily vehicles was visually evaluated. […] The EV‐P concentration in the sample was analyzed using Waters HPLC system (Model 515 pump, Model 486 UV‐VIS detector, and Model 717 plus autosampler, Waters, Milford, MA, USA) equipped with a reversed‐phase C18 column (4.6 × 150 mm, 5 μm, Shiseido). The mobile phase for EV‐P analysis consisted of 2‐propanol and deionized distilled water at a volume ratio of 6:4. The flow rate of the mobile phase and detection wavelength were 1.0 mL/min and 253 nm, respectively, and the elution time of EV‐P was 5.3 min. The calibration curve was linear in the range of 1–100 μg/mL and the limit of detection (LOD) and limit of quantitation (LOQ) values were calculated as 0.5 μg/mL and 1.5 μg/mL, respectively.

[4] = Solubility of EV‐P in phosphate buffer and dissolution medium; format: physicochemical
[5] = Equilibrium solubility of EV‐P in injectable oily vehicles (HPLC); format: physicochemical; settings: for solubility at 3 days: 25°C, stored over 3 days, mean ± SD (n = 3)
Description: […] […] […] […] The EV‐P concentration in the sample was analyzed using Waters HPLC system (Model 515 pump, Model 486 UV‐VIS detector, and Model 717 plus autosampler, Waters, Milford, MA, USA) equipped with a reversed‐phase C18 column (4.6 × 150 mm, 5 μm, Shiseido). The mobile phase for EV‐P analysis consisted of 2‐propanol and deionized distilled water at a volume ratio of 6:4. The flow rate of the mobile phase and detection wavelength were 1.0 mL/min and 253 nm, respectively, and the elution time of EV‐P was 5.3 min. The calibration curve was linear in the range of 1–100 μg/mL and the limit of detection (LOD) and limit of quantitation (LOQ) values were calculated as 0.5 μg/mL and 1.5 μg/mL, respectively.

[6] = set-up: method as in PMID 11672957; settings: after SC or IM injection in pigs; cited from earlier work
[7] = set-up: method as in earlier work; settings: mice and rats; cited from earlier work

Structure (SMILES): Cc1nc2n(c(=O)c1CCN1CCC(c3noc4cc(F)ccc34)CC1)CCCC2O (centres unmarked) [paliperidone]
- AUC after 1 day post‐dosing, times higher than IM injection with no treatment [1]: approximately 2.2 times
- C max, times higher than IM injection with no treatment [1]: 1.5 times

Structure (SMILES): C=C1[C@H](COC(=O)CCCCCCCCCCCCCCC)[C@@H](O)C[C@@H]1n1cnc2c(=O)[nH]c(N)nc21 [EV‐P, 2‐amino‐1,9‐dihydro‐9‐[(1S,3R,4S)‐4‐hydroxy‐3‐(hexadecanoyloxymethyl)‐2‐methylenecyclopentyl]‐6H‐purin‐6‐one]
- Aqueous solubility [2]: approximately 1.1 μg/mL
- Dispersibility ([3]; in Labrafac PG): evenly dispersed
- Dispersibility ([3]; in Miglyol 812): Aggregated
- Dispersibility ([3]; in castor oil): Aggregated
- Dispersibility ([3]; in cotton seed oil): Aggregated
- Dispersibility ([3]; in oleic acid): Re‐dispersible
- Dispersibility ([3]; in peanut oil): Aggregated
- Dispersibility ([3]; in soybean oil): Aggregated
- Dispersibility ([3]; in tricaprylin): evenly dispersed; also recorded: Re‐dispersible
- solubility ([4]; isopropyl alcohol and distilled water (5:5, v/v) mixture, read-out: Solubility in dissolution medium): > 100 µg/mL
- solubility ([4]; phosphate buffer / aqueous media pH 7.4, read-out: Solubility in phosphate buffer (pH 7.4)): 1.1 µg/mL (≈ 2.13 µM)
- EV‐P dissolved in OS ([5]; OS designed using tricaprylin and Labrafac, EV‐P concentration of 9.0 mg/mL): less than 1.0 % (w/v)
- solubility at 3 days ([5]; in castor oil): 2100 µg/mL (≈ 4070 µM)
- solubility at 3 days ([5]; in peanut oil): 1900 µg/mL (≈ 3680 µM)
- solubility at 3 days ([5]; oil or lipid, thermodynamic from solid, in Labrafac PG): 110 ± 10 µg/mL (≈ 213 µM)
- solubility at 3 days ([5]; oil or lipid, thermodynamic from solid, in Miglyol 812): 620 ± 120 µg/mL (≈ 1200 µM)
- solubility at 3 days ([5]; oil or lipid, thermodynamic from solid, in castor oil): 2140 ± 70 µg/mL (≈ 4150 µM)
- solubility at 3 days ([5]; oil or lipid, thermodynamic from solid, in cotton seed oil): 980 ± 570 µg/mL (≈ 1900 µM)
- solubility at 3 days ([5]; oil or lipid, thermodynamic from solid, in oleic acid): 5900 ± 50 µg/mL (≈ 11400 µM)
- solubility at 3 days ([5]; oil or lipid, thermodynamic from solid, in peanut oil): 1950 ± 180 µg/mL (≈ 3780 µM)
- solubility at 3 days ([5]; oil or lipid, thermodynamic from solid, in soybean oil): 800 ± 130 µg/mL (≈ 1550 µM)
- solubility at 3 days ([5]; oil or lipid, thermodynamic from solid, in tricaprylin): 30 ± 10 µg/mL (≈ 58.2 µM)

Structure (SMILES): CCCCCCCCCCCCCC(=O)OC(C)C [isopropyl myristate]
- Elimination T 1/2 from injection site [6]: approximately 20 days

Structure (SMILES): C=C1[C@H](CO)[C@@H](O)C[C@@H]1n1cnc2c(=O)[nH]c(N)nc21 [EV, entecavir]
- Oral doses with minimal acute toxicity [7]: up to 200 mg/kg
